# Source: US8088623B2, “Dominant selection marker for the transformation of fungi” (priority 2003, dated 2012)
# Tests used:
# [1] = tested on: filamentous fungi and yeasts; conditions: growth of numerous filamentous fungi and yeasts; cited from earlier work
# [2] = molecular target: T1, MS-ACC from E. coli (Escherichia coli, UniProt P24182); experiment: Sensitivity of prokaryotic MS-ACC to inhibition
# T1 construct: expressed in transfected cells; host or cells: Pichia pastoris GS115 transformed with pAO815-ACC4 (strain HWA4)
# [3] = tested on: Pichia pastoris transformant HWA3p; conditions: MM plates, 30° C., six days
# Procedure: For transformation by electroporation, 3-12 μg of Sal I-linearized plasmid pPIC3.5K-BCCP was mixed with the competent cells and pulsed in 0.1 cm electroporation cuvettes at 1.5 kV, 25 μF, and 200Ω using a Gene Pulser (Bio-Rad). Immediately after the pulse, 1 ml of 1 M sorbitol was added to the cuvette and the cells were incubated for regeneration for 1 hour at room temperature. The cell suspension was aliquoted into two sterile Eppendorf tubes, 0.5 ml of YPD medium or MM medium was added, respectively, and the cells were incubated for 3 more hours at room temperature thereby being shaked. 50-200 μl of the aliquotes in YPD were spread on YPD-G418 plates to select G418 resistant transformants, whereas aliquots in MM medium were spread on MM-agar containing 0.02 μg/ml Soraphen A.
# Histidine prototrophic or G418 resistant transformants were grown overnight in 20 ml MM medium. The cells were harvested by centrifugation and spotted onto MM plates containing different concentrations of Soraphen A (0-0.1 μg/ml). Duplicated plates were incubated at 30° C. for six days under daily addition of methanol.
# [4] = tested on: acetyl-CoA carboxylase (ACC) of yeast and filamentous fungi; conditions: cited from earlier work
# [5] = tested on: bacteria or prokaryotes; conditions: cited from earlier work
# [6] = tested on: MF-ACC purified from rat liver; conditions: cited from earlier work
# [7] = tested on: Ustilago zeae; conditions: cited from earlier work
# [8] = tested on: Pichia pastoris transformant HWA4; experiment: Soraphen A sensitivity of transformant HWA4 (accA-D) on MM plates; assay type: cell-based; conditions: 30° C., six days
# Procedure: (§1) Transformation of spheroplasts was carried out with 10 μg of Sal I-linearized plasmid pAO815-ACC3 or pAO815-ACC4 following the manufacturer's instructions. Transformants were selected on RDB plates and in a second selection round the obtained histidine prototroph clones were tested for Soraphen A sensitivity on MM plates containing Soraphen A (0-0.1 μg/ml).
# [9] = tested on: MF-ACC purified from Ustilago maydis; conditions: cited from earlier work
# [10] = tested on: Pichia pastoris transformant HWA3; experiment: Soraphen A sensitivity of transformant HWA3 (accA, accC, accD) on MM plates; assay type: cell-based; conditions: 30° C., six days
# Procedure: as §1
# [11] = tested on: Mucor hiemalis; conditions: cited from earlier work
# [12] = tested on: Pichia pastoris strain GS115; experiment: Soraphen A sensitivity of recipient strain GS115 on MM plates; assay type: cell-based; conditions: point and surface inoculation, 30° C., six days
# Procedure: Two methods were used to determine the concentration of Soraphen A inhibitory to the growth of P. pastoris GS115. On the one hand MM plates containing 0 to 0.1 μg/ml Soraphen A were locally inoculated with 10^6 to 10^2 cells. On the other hand 5000 cells were streaked onto such plates. Inokulations were incubated in duplicate at 30° C. for six days; 100 μl of 100% methanol was added daily to the lid of the inverted plates.
compound,measurement,setting,value
CO[C@H]1CCCC[C@@H](c2ccccc2)OC(=O)[C@@H](C)[C@@]2(O)O[C@H]([C@@H](C)[C@H](O)[C@H]2OC)[C@@H](C)/C=C/[C@H]1OC [Soraphen A],MIC values,[1],below 1 ug/ml
same,sensitivity of MS-ACC to inhibition by Soraphen A,[2],insensitive
same,Soraphen A concentration up to which resistance is fully developed,[3],> 0.1 µg/mL
same,inhibition of acetyl-CoA carboxylase (ACC) activity,[4],inhibits
same,sensitivity to Soraphen,[5],generally not sensitive
same,inhibition of MF-ACC activity in vitro,[6],inhibit
same,MIC value,[7],4 µg/mL
same,Soraphen A concentration not inhibiting growth (undiminished growth),[8],> 0.1 µg/mL
same,inhibition of MF-ACC activity in vitro,[9],inhibit
same,Soraphen A concentration giving no growth,[10],≤ 0.02 µg/mL
same,MIC value,[11],0.03 µg/mL
same,Soraphen A concentration leading to complete inhibition of growth,[12],≤ 0.02 µg/mL
